The source made the active and inactive calls.
Tests used:
[1] = molecular target: Potassium voltage-gated channel subfamily KQT member 2 (Rattus norvegicus, UniProt O88943); assay: blockers of KCNQ2 channel current – cell-based, automated electrophysiology, set II, rat KCNQ2, dose response (AID 588637); type: functional
[2] = molecular target: T1, RNA-binding protein pos-1 (Caenorhabditis elegans, UniProt G5EF15); assay: disruptors of C. elegans POS-1 RNA interaction – biochemical, fluorescence polarization, dose response (AID 1964);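 further: purified POS-1 fused to maltose binding protein made in E. coli; potency of compounds blocking POS-1 binding to fluorescent RNA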
T1 sequence (G5EF15 whole entry): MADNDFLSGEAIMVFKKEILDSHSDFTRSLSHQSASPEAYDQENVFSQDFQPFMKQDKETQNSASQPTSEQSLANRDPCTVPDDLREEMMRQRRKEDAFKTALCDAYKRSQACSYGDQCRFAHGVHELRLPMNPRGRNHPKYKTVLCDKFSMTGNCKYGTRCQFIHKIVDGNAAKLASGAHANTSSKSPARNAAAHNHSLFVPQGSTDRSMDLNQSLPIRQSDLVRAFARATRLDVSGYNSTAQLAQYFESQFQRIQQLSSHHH

[3] = molecular target: Dual specificity tyrosine-phosphorylation-regulated kinase 1A (Rattus norvegicus, UniProt Q63470); type: biochemical, Homo sapiens
[4] = molecular target: T2, Mitochondrial peptide methionine sulfoxide reductase (Bos taurus, UniProt P54149); assay: Absorbance-based biochemical high throughput dose response assay for activators of Methionine sulfoxide reductase A (MsrA).; type: functional
T2 sequence (P54149 whole entry): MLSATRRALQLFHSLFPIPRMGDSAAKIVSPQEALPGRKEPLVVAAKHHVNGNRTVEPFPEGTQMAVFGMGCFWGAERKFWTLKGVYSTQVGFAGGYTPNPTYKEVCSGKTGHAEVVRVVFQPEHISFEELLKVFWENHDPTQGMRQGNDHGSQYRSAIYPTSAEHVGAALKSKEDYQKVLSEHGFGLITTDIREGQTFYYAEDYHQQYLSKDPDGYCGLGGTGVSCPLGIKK

[5] = molecular target: T3, Zinc finger protein mex-5 (Caenorhabditis elegans, UniProt Q9XUB2); assay: potency of MEX-5 RNA-binding blockers – biochemical, C. elegans, fluorescence polarization, dose response (AID 1960)
T3 sequence (Q9XUB2 whole entry): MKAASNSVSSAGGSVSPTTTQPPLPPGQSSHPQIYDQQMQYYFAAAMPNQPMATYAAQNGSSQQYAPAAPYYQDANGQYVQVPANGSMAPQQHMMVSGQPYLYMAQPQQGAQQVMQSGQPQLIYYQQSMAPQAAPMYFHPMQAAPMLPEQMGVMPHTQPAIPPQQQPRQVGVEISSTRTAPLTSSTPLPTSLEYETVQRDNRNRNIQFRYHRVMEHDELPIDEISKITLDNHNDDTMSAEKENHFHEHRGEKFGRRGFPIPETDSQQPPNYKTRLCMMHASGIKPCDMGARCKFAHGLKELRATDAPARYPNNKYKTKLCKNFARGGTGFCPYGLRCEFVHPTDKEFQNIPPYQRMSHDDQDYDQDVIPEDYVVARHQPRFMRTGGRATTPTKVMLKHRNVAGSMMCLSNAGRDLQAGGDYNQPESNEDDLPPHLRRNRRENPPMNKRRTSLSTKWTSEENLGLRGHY

[6] = molecular target: Tyrosine-protein phosphatase non-receptor type 5 (Homo sapiens, UniProt P54829); assay: PTPN5 enzyme inhibition – biochemical, fluorescence intensity, uHTS hits, confirmation (AID 602372); type: functional; details: read-out: IC50_Mean
[7] = molecular target: Tyrosine-protein phosphatase non-receptor type 11 (Homo sapiens, UniProt Q06124); assay: PTPN11 enzyme inhibitors – biochemical, selectivity assay for STEP inhibitor project, dose response (AID 602367); type: functional; details: read-out: IC50_Mean
[8] = molecular target: Dual specificity protein phosphatase 3 (Homo sapiens, UniProt P51452); assay: VHR phosphatase inhibition, dose response, selectivity assay for STEP inhibitor project, biochemical (AID 602374); type: functional; details: read-out: IC50_Mean
[9] = inhibition of ARNT PAS-B/TACC3 complex formation – biochemical, AlphaScreen, cherry-picked samples, confirmation (AID 651703); type: functional, Homo sapiens;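 further: His-tagged ARNT PAS-B domain paired with GST-TACC3 E629A dimer coactivator fragment; potency of inhibitors that break up the complex and lower AlphaScreen signal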
[10] = molecular target: T4, Rac GTPase-activating protein 1 (Homo sapiens, UniProt Q9H0H5); assay: blockers of MgcRacGAP-driven Rac1 GTP hydrolysis – biochemical, ADP Hunter fluorescence, primary and confirmatory, confirmation (AID 624330); type: functional
T4 sequence (Q9H0H5 whole entry): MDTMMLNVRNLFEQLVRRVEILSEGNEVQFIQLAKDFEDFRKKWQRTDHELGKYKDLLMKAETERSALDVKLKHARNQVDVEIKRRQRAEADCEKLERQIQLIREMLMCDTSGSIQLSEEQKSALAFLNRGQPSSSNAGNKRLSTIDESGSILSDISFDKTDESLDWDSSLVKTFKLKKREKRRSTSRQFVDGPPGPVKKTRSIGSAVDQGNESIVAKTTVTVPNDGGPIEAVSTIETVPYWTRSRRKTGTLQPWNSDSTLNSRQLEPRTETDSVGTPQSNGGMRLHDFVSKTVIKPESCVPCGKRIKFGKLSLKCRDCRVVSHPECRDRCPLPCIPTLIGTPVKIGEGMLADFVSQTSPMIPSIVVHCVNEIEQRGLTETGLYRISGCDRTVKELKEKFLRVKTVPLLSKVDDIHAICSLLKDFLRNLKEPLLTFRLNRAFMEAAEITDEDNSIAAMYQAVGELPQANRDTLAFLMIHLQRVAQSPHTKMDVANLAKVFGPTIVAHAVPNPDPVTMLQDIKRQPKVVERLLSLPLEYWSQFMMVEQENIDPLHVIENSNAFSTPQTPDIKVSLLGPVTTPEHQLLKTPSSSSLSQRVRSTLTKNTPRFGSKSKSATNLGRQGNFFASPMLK

[11] = molecular target: Tyrosine-protein kinase Fyn (Homo sapiens, UniProt P06241); type: functional
[12] = molecular target: Tyrosine-protein kinase BTK (Homo sapiens, UniProt Q06187); type: functional
[13] = molecular target: Dual specificity protein kinase CLK4 (Homo sapiens, UniProt Q9HAZ1); type: functional
[14] = molecular target: BDNF/NT-3 growth factors receptor (Homo sapiens, UniProt Q16620); type: functional;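 further: NTRK2 measured as one member of a broad kinome-wide kinase profiling panel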
[15] = molecular target: ALK tyrosine kinase receptor (Homo sapiens, UniProt Q9UM73); type: functional;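 further: ALK tested as one member of a kinase panel screen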
[16] = molecular target: Tyrosine-protein kinase Lck (Homo sapiens, UniProt P06239); type: functional;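 further: lck was assayed as one member of a kinase panel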
[17] = molecular target: Serine/threonine-protein kinase pim-1 (Homo sapiens, UniProt P11309); type: functional
[18] = molecular target: T5, Serine/threonine-protein kinase TAO1 (Homo sapiens, UniProt Q7L7X3); type: functional
T5 sequence (Q7L7X3 whole entry): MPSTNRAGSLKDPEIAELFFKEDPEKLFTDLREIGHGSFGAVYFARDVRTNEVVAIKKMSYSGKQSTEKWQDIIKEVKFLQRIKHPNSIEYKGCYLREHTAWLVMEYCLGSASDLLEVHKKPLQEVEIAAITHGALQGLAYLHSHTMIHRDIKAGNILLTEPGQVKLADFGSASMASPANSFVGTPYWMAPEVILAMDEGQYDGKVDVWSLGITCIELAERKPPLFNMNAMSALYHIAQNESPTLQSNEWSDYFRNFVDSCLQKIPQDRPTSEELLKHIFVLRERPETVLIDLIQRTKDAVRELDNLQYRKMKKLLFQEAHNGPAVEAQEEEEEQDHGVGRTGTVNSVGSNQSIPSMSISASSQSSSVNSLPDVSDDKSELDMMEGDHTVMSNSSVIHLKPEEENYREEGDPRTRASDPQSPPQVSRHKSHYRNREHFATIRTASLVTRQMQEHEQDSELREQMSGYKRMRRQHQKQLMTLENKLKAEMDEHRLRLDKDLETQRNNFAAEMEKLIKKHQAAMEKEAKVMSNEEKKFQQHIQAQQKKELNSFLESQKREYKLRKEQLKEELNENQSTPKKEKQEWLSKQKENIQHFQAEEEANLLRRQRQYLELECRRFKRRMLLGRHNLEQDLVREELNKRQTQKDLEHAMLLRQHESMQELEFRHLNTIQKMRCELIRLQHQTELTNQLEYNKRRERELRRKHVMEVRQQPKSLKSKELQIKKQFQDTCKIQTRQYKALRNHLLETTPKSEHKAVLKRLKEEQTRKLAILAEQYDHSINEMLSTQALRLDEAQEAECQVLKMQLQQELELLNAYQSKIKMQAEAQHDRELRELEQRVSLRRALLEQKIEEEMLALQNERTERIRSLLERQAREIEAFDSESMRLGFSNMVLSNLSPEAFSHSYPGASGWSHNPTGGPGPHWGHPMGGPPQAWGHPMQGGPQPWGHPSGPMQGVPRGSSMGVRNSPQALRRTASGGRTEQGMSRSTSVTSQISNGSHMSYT

Chain of Potassium voltage-gated channel subfamily KQT member 2 (O88943 whole entry, the tested form may be a part): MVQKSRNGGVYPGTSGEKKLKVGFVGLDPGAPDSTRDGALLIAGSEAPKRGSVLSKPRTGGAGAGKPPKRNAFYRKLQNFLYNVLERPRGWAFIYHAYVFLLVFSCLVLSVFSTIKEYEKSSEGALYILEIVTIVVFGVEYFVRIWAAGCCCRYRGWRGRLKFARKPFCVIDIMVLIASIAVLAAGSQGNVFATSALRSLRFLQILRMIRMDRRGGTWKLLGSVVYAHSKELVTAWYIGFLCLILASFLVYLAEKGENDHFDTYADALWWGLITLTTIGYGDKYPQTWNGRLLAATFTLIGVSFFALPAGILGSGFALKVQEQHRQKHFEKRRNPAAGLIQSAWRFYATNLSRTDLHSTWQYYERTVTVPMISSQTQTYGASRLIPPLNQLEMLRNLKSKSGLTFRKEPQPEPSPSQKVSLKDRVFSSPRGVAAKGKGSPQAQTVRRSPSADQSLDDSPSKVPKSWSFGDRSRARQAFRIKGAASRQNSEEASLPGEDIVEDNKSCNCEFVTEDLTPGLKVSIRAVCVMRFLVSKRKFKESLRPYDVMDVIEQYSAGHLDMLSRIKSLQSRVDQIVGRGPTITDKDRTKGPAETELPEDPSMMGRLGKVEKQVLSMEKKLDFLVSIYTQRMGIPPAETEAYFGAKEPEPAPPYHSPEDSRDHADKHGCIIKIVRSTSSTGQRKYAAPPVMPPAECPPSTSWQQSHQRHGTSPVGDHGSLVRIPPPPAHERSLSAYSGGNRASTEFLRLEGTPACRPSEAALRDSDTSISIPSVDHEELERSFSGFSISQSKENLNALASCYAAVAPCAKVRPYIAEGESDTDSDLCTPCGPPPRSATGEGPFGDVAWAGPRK
Chain of Tyrosine-protein kinase BTK (Q06187 whole entry): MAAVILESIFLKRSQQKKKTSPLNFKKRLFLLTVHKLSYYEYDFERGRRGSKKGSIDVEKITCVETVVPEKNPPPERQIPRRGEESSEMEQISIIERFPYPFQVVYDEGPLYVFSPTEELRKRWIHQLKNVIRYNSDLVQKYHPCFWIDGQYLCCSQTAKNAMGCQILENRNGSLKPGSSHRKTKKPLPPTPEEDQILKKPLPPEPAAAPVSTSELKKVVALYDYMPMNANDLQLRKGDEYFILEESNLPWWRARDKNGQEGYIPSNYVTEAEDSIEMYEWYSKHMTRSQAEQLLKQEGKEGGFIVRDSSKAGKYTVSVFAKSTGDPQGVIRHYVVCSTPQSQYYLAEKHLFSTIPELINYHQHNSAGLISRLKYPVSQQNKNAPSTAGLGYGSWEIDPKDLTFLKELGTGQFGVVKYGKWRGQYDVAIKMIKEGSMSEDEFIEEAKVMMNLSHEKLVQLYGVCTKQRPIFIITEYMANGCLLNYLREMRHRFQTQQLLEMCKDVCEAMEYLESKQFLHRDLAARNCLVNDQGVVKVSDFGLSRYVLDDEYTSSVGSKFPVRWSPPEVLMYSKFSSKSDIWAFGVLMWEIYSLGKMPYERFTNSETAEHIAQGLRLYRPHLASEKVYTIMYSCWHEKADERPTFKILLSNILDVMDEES
Chain of Tyrosine-protein phosphatase non-receptor type 5 (P54829 whole entry): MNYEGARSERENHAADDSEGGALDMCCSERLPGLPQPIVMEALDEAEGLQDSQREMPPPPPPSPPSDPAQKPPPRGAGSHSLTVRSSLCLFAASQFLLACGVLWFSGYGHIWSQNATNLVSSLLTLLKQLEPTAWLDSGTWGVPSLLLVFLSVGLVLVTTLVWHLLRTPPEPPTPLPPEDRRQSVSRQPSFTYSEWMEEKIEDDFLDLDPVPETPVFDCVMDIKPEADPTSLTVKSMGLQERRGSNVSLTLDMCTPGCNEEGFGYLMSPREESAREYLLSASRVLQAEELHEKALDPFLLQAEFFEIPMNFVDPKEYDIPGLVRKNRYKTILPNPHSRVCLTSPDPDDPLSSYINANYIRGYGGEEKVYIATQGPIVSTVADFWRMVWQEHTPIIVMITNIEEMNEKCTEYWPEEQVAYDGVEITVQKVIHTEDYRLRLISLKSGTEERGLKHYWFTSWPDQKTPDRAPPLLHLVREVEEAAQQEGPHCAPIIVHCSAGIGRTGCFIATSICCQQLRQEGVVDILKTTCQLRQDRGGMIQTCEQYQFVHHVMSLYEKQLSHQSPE
Chain of Serine/threonine-protein kinase pim-1 (P11309 whole entry): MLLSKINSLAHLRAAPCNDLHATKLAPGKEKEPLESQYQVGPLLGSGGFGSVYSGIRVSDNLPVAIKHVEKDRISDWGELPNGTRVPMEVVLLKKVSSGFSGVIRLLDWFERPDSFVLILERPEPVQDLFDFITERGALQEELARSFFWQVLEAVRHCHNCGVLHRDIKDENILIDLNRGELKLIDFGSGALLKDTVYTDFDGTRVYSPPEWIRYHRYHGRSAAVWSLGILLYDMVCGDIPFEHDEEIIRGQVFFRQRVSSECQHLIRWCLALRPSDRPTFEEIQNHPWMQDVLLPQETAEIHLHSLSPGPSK
Chain of BDNF/NT-3 growth factors receptor (Q16620 whole entry): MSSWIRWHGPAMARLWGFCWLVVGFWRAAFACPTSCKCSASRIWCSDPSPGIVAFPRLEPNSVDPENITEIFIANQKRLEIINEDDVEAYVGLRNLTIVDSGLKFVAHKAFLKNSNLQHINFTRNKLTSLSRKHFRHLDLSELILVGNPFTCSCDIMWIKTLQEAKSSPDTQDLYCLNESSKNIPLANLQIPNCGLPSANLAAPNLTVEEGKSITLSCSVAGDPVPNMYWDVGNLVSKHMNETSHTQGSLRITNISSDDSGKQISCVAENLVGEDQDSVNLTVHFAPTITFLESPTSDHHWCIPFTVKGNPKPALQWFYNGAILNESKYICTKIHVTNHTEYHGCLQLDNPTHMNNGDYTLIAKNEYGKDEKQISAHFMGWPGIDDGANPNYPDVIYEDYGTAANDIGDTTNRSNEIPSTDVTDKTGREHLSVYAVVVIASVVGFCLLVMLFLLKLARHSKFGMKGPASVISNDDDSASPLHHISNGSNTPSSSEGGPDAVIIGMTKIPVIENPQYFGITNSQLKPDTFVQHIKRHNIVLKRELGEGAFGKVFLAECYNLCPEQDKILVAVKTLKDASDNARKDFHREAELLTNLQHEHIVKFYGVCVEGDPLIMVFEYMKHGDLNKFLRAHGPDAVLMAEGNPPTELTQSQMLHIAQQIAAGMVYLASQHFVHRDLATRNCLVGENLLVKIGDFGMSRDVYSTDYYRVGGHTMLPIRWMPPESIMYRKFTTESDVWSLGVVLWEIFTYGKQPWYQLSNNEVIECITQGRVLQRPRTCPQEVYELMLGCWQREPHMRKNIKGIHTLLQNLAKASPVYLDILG
Chain of Tyrosine-protein phosphatase non-receptor type 11 (Q06124 whole entry): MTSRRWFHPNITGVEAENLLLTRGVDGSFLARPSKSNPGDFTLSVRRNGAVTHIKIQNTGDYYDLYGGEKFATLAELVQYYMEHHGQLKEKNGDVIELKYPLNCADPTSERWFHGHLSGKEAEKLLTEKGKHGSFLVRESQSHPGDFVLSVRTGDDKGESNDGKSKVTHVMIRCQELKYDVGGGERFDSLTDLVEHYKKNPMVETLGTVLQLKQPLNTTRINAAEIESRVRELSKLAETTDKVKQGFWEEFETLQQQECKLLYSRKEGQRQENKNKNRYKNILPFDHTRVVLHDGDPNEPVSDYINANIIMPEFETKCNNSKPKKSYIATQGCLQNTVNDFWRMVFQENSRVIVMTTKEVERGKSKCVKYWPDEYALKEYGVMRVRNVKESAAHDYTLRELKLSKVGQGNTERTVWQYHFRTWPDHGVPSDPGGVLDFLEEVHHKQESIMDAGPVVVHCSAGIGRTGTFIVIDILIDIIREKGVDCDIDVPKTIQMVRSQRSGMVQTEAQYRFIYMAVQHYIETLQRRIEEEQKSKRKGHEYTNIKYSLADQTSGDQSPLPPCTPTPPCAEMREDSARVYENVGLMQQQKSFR
Chain of Dual specificity protein phosphatase 3 (P51452 whole entry, the tested form may be a part): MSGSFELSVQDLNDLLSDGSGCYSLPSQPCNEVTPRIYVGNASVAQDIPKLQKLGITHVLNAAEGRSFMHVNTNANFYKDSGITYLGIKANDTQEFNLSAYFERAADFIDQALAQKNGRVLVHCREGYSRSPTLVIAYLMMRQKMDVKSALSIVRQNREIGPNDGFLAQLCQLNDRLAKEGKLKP
Chain of Tyrosine-protein kinase Fyn (P06241 whole entry): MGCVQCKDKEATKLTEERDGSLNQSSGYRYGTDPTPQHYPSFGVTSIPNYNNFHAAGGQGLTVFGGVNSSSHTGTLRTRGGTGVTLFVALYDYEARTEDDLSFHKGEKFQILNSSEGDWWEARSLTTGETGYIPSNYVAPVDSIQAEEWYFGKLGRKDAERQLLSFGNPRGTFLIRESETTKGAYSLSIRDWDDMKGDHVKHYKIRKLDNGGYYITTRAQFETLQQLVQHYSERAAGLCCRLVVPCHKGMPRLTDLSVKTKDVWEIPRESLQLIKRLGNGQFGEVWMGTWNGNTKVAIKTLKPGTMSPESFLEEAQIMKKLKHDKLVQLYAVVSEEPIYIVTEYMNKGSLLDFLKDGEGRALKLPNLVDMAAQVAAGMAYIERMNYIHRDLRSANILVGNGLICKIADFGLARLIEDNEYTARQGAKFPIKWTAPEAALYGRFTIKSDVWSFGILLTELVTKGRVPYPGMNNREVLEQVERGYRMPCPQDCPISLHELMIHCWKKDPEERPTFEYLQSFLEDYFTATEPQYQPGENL
Chain of Dual specificity protein kinase CLK4 (Q9HAZ1 whole entry): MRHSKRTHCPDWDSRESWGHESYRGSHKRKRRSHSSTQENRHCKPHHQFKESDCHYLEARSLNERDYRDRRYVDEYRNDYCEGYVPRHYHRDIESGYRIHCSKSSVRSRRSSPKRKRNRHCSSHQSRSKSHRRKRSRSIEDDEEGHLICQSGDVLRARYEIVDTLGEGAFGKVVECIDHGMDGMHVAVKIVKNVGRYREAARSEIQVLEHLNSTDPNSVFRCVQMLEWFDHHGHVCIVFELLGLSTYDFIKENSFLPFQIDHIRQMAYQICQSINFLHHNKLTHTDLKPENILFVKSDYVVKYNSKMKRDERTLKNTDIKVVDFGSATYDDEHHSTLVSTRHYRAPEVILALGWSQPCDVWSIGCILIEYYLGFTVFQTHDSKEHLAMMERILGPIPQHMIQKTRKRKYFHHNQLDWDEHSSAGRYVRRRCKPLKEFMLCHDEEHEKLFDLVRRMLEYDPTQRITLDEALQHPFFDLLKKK

## COc1ccc(Nc2ccccc2NC(=O)c2ccccc2Br)cc1
[1]
  IC50: 4.81 µM (active)

## Cc1ccc2c(C)c(C(=O)N3CCN(c4ncccn4)CC3)oc2c1C
[1]
  IC50: 4.2 µM (active)

## O=C1c2ccccc2C(=O)c2[nH]cnc21
[2]
  EC50: > 300 µM (not active)
[3]
  AC50: 7.57 µM (active)
[4]
  EC50: > 104 µM (inactive)
[5]
  EC50: 85.6 µM (active)

## CCOC(=O)c1c(NC(=O)OC)sc(C(=O)N(CC)CC)c1C
[6]
  IC50: 28.4 µM (inactive)
[7]
  IC50: 4.3 µM (active)
[8]
  IC50: 1.56 µM (active)

## FC(F)(F)c1cnc(-c2cnc(-c3ccccn3)nc2)c(Cl)c1
[9]
  AC50: 75.3 µM (active)

## Nc1nc(=S)ss1
[10]
  IC50: 301 µM (active)
[4]
  EC50: 10.3 µM (inactive)

## O=C(Nc1ccccc1N1CCCC1)c1ccc2ccccc2n1
[11]
  Ki: > 6.31 µM (inactive)
[12]
  Ki: > 6.31 µM (inactive)
[13]
  Ki: 1.26 µM (active)
[14]
  Ki: 0.631 µM (active)
[15]
  Ki: > 6.31 µM (inactive)
[16]
  Ki: > 6.31 µM (inactive)
[17]
  Ki: > 6.31 µM (inactive)
[18]
  Ki: > 6.31 µM (inactive)
